Patent US20240301000A1, “TETRAPEPTIDE DERIVATIVE,COSMETIC COMPOSITION OR PHARMACEUTICAL COMPOSITION AND USE THEREOF” (SHENZHEN WINKEY TECHNOLOGY CO., LTD, priority 2021, published 2024)
Residues, ends and D or L forms follow the SMILES beside them. *: point of attachment. X1 = O=C(OCc1cc(=O)c(O)co1)*; Nicotinoyl = O=C(c1cccnc1)*

Assays:
Type in all cases: cell-based, Human
[1] = test system: α-MSH; assay: Cell assay for inhibition of α-MSH generation (ELISA, HaCaT supernatant); settings: 100 ppm, 48 h; for statistical difference in the α-MSH inhibition compared with the control group: HaCaT (FIG. 2); for effect on α-MSH expression: HaCaT supernatant, compared with PBS control group (FIG. 2)
Protocol: Fetal bovine serum, DMEM medium, penicillin, streptomycin, and an α-MSH ELISA kit.
(§1) Human keratinocytes (HaCaT) were purchased from the Kunming Cell Bank of China Center for Type Culture Collection under the Chinese Academy of Sciences.
• 100 ppm of the reference peptide, 100 ppm of the peptide (1), 100 ppm of the peptide (3), 100 ppm of the peptide (5), 100 ppm of NA, 100 ppm of TXC, and 100 ppm of KA.
(§2) The frozen HaCaT cells were cultured and passaged at a ratio of 1:2 to about the 5th generation, and the cells in better growth were selected as experiment subjects.
When the cells were about 80% confluent, the samples were added to each group. In the control group, a PBS solution was added and supplemented with a culture medium to 1000 μL. In the drug groups, the diluted active substance and the culture medium were added to 1000 μL and the groups were further incubated in a 5% CO2 incubator at 37° C. for 48 h. After the completion of the culture, the solutions were centrifuged at 3000 rpm for 10 min, in each of which a cell supernatant was collected to obtain a sample liquid. Operations were performed according to the instructions of the α-MSH kit.
α-MSH can promote the formation of melanin by activating tyrosinase. Therefore, down-regulation of the α-MSH expression can reduce melanin generation and exert a whitening effect.

[2] = test system: HaCaT cells; assay: Cell viability assay (MTT) in HaCaT cells; settings: 1, 10, 100 and 200 ppm, 72 h, compared with PBS control group (FIG. 1)
Text: as §1
• the peptide H-Pro-Lys-Glu-Lys-OH (hereinafter referred to as the reference peptide), at a test concentration of 1 ppm, 10 ppm, 100 ppm, and 200 ppm, respectively; • the peptide (1), at a test concentration of 1 ppm, 10 ppm, 100 ppm, and 200 ppm, respectively; • the peptide (3), at a test concentration of 1 ppm, 10 ppm, 100 ppm, and 200 ppm, respectively; • the peptide (5), at a test concentration of 1 ppm, 10 ppm, 100 ppm, and 200 ppm, respectively.
The purpose of this experiment is to evaluate cell viability 72 h after administration and determine the effect of the peptide derivatives of the present invention on cell viability by using HaCaT cells as the experiment subject.
as §2
The cells were inoculated in a 96-well plate at 2000 cells/well. After the cells adhered to the wall, samples of the drug groups and the control group were added according to the multiple dilution method, supplemented with a culture medium to 200 μL, and cultured in a 5% CO2 incubator at 37° C. for 72 h.
Then 20 μL 5 mg/ml MTT was added to each well and the incubation was continued in the 5% CO2 incubator at 37° C. for 4 h. The original solution was removed and DMSO was added at 150 μL/well. After 5 min, the microplate reader was used to read the reference OD values at 490 nm and 630 nm wavelengths.
The MTT assay is a method of detecting cell survival and growth. The measured OD values are directly proportional to cell viability.

[3] = test system: IL-6; assay: Anti-inflammatory cell assay, UV-irradiated HaCaT cells, IL-6 ELISA; settings: 50 ppm, 48 h after UV irradiation, compared with UV group (FIG. 3)
Protocol: (§3) Fetal bovine serum, DMEM medium, penicillin, streptomycin, an IL-6 ELISA kit and a TNF-α ELISA kit.
as §1
(§4) • 50 ppm of the reference peptide, 50 ppm of the peptide (1), 50 ppm of the peptide (3), and 50 ppm of the peptide (5).
as §2
(§5) When the cells were about 80% confluent, a model of inflammation stimulated by UV radiation was established. In the control group, a PBS solution was added and supplemented with the culture medium to 1000 μL, while no UV irradiation was performed; The UV group and the drug groups were exposed to an […] UV light. After irradiation, in the UV group the PBS solution and a culture medium were added to 1000 μL, and in the drug groups the diluted active substance and the culture medium were added to 1000 μL. The control group, the UV group, and the drug groups were further incubated in a 5% CO2 incubator at 37° C. for 48 h. After the completion of the culture, the solutions were centrifuged at 3000 rpm for 10 min, in each of which a cell supernatant was collected to obtain a sample liquid. […]

[4] = test system: TNF-α; assay: Anti-inflammatory cell assay, UV-irradiated HaCaT cells, TNF-α ELISA; settings: 50 ppm, 48 h after UV irradiation, compared with UV group (FIG. 4)
Protocol: as §3, §1, §4, §2, §5

Molecule	statistical difference in the α-MSH inhibition compared with the control group [1]	effect on α-MSH expression [1]	effect on HaCaT cell viability [2]	effect on IL-6 expression [3]	effect on TNF-α expression [4]
O=c1cc(CO)occ1O [KA, kojic acid]	no statistical difference	inhibited the α-MSH expression to a certain extent			
O=C(O)c1cccnc1 [NA, niacin]	no statistical difference	inhibited the α-MSH expression to a certain extent			
NCCCCC(NC(=O)C(CCC(=O)O)NC(=O)C(CCCCN)NC(=O)C1CCCN1C(=O)c1cccnc1)C(=O)O (stereo not drawn) [peptide (1), NA-Pro-Lys-Glu-Lys-OH] (Nicotinoyl-PKEK-OH; configuration not given here)			no significant effect		
NCCCCC(NC(=O)C(CCC(=O)O)NC(=O)C(CCCCN)NC(=O)C1CCCN1C(=O)OCc1cc(=O)c(O)co1)C(=O)O (stereo not drawn) [peptide (5), KA-CO-Pro-Lys-Glu-Lys-OH] (X1-PKEK-OH; configuration not given here)			no significant effect		
H-Pro-Lys-Glu-Lys-OH (H-PKEK-OH) [reference peptide]	no statistical difference	inhibited the α-MSH expression to a certain extent		significantly down-regulated	inhibited the TNF-α expression to a certain extent, but the inhibitory effect was not obvious
TXC-Pro-Lys-Glu-Lys-OH [peptide (3)]		significantly down-regulated	no significant effect	significantly down-regulated	significantly down-regulated
tranexamic acid [TXC]		inhibited the α-MSH expression to a certain extent			
